Test results: the NIST ThermoML archive (doi:10.1016/j.jct.2018.05.029)
Several values for one entry are separate records, joined by “and”; a condition that tells them apart may be missing. Equal entries are not always repeated. ± gives the expanded uncertainty stated by the source.

Cc1cc2ccccc2[nH]1 [2-methylindole]
Conditions | mass density | molar entropy [J/K/mol] | vapor or sublimation pressure
10 K, Crystal, Vacuum adiabatic calorimetry | – | 0.7816 ± 0.025 | –
20 K, Crystal, Vacuum adiabatic calorimetry | – | 5.097 ± 0.058 | –
30 K, Crystal, Vacuum adiabatic calorimetry | – | 11.88 ± 0.075 | –
40 K, Crystal, Vacuum adiabatic calorimetry | – | 19.5 ± 0.1 | –
50 K, Crystal, Vacuum adiabatic calorimetry | – | 27.26 ± 0.13 | –
60 K, Crystal, Vacuum adiabatic calorimetry | – | 34.95 ± 0.16 | –
70 K, Crystal, Vacuum adiabatic calorimetry | – | 42.45 ± 0.18 | –
80 K, Crystal, Vacuum adiabatic calorimetry | – | 49.75 ± 0.21 | –
90 K, Crystal, Vacuum adiabatic calorimetry | – | 56.85 ± 0.32 | –
100 K, Crystal, Vacuum adiabatic calorimetry | – | 63.76 ± 0.34 | –
120 K, Crystal, Vacuum adiabatic calorimetry | – | 77.12 ± 0.37 | –
140 K, Crystal, Vacuum adiabatic calorimetry | – | 89.97 ± 0.41 | –
160 K, Crystal, Vacuum adiabatic calorimetry | – | 102.47 ± 0.44 | –
180 K, Crystal, Vacuum adiabatic calorimetry | – | 114.71 ± 0.48 | –
200 K, Crystal, Vacuum adiabatic calorimetry | – | 126.76 ± 0.52 | –
220 K, Crystal, Vacuum adiabatic calorimetry | – | 138.69 ± 0.55 | –
240 K, Crystal, Vacuum adiabatic calorimetry | – | 150.54 ± 0.58 | –
260 K, Crystal, Vacuum adiabatic calorimetry | – | 162.33 ± 0.62 | –
280 K, Crystal, Vacuum adiabatic calorimetry | – | 174.1 ± 0.66 | –
298.15 K, Crystal, Vacuum adiabatic calorimetry | – | 184.78 ± 0.69 | –
298.15 K, Liquid, Vacuum adiabatic calorimetry | – | 224.56 ± 0.81 | –
300 K, Crystal, Vacuum adiabatic calorimetry | – | 185.87 ± 0.69 | –
300 K, Liquid, Vacuum adiabatic calorimetry | – | 225.95 ± 0.81 | –
320 K, Crystal, Vacuum adiabatic calorimetry | – | 197.68 ± 0.73 | –
320 K, Liquid, Vacuum adiabatic calorimetry | – | 240.78 ± 0.86 | –
331.97 K, Crystal, Vacuum adiabatic calorimetry | – | 204.77 ± 0.75 | –
331.97 K, Liquid, Vacuum adiabatic calorimetry | – | 249.48 ± 0.89 | –
339.98 K, Liquid, Inclined piston gauge | – | – | 0.022 ± 0.0008 kPa
339.99 K, Liquid, Inclined piston gauge | – | – | 0.022 ± 0.0008 kPa
340 K, Liquid, Vacuum adiabatic calorimetry | – | 255.25 ± 0.91 | –
349.98 K, Liquid, Inclined piston gauge | – | – | 0.0439 ± 0.0008 kPa
359.98 K, Liquid, Inclined piston gauge | – | – | 0.0849 ± 0.0009 kPa
360 K, Liquid, Vacuum adiabatic calorimetry | – | 269.41 ± 0.95 | –
369.98 K, Liquid, Inclined piston gauge | – | – | 0.1565 ± 0.0009 kPa and 0.1564 ± 0.0009 kPa
379.98 K, Liquid, Inclined piston gauge | – | – | 0.2769 ± 0.001 kPa
380 K, Liquid, Vacuum adiabatic calorimetry | – | 283.28 ± 0.99 | –
389.98 K, Liquid, Inclined piston gauge | – | – | 0.4731 ± 0.0012 kPa
399.97 K, Liquid, Inclined piston gauge | – | – | 0.7822 ± 0.0014 kPa
400 K, Liquid, Vacuum adiabatic calorimetry | – | 296.88 ± 1 | –
409.97 K, Liquid, Inclined piston gauge | – | – | 1.255 ± 0.0018 kPa
419.96 K, Liquid, Inclined piston gauge | – | – | 1.958 ± 0.0023 kPa
420 K, Liquid, Vacuum adiabatic calorimetry | – | 310.21 ± 1.1 | –
424.96 K, Liquid, Inclined piston gauge | – | – | 2.423 ± 0.0027 kPa
424.97 K, Liquid, Inclined piston gauge | – | – | 2.423 ± 0.0027 kPa
427.25 K, Liquid, Twin ebulliometer | – | – | 2.666 ± 0.0079 kPa
429.96 K, Liquid, Inclined piston gauge | – | – | 2.979 ± 0.0032 kPa
437.34 K, Liquid, Twin ebulliometer | – | – | 4 ± 0.0079 kPa
440 K, Liquid, Vacuum adiabatic calorimetry | – | 323.28 ± 1.1 | –
444.87 K, Liquid, Twin ebulliometer | – | – | 5.333 ± 0.008 kPa
456.04 K, Liquid, Twin ebulliometer | – | – | 7.999 ± 0.008 kPa
460 K, Liquid, Small sample (50 mg) DSC | – | 336.12 ± 7.8 | –
464.4 K, Liquid, Twin ebulliometer | – | – | 10.67 ± 0.008 kPa
471.16 K, Liquid, Twin ebulliometer | – | – | 13.33 ± 0.008 kPa
478.17 K, Liquid, Twin ebulliometer | – | – | 16.66 ± 0.009 kPa
480 K, Liquid, Small sample (50 mg) DSC | – | 348.73 ± 8.1 | –
483.99 K, Liquid, Twin ebulliometer | – | – | 19.93 ± 0.009 kPa
491.65 K, Liquid, Twin ebulliometer | – | – | 25.02 ± 0.009 kPa and 25.02 ± 0.01 kPa
499.35 K, Liquid, Twin ebulliometer | – | – | 31.18 ± 0.011 kPa
500 K, Liquid, Small sample (50 mg) DSC | – | 361.11 ± 8.4 | –
507.08 K, Liquid, Twin ebulliometer | – | – | 38.56 ± 0.012 kPa
514.86 K, Liquid, Twin ebulliometer | – | – | 47.38 ± 0.014 kPa
520 K, Liquid, Small sample (50 mg) DSC | – | 373.29 ± 8.7 | –
522.68 K, Liquid, Twin ebulliometer | – | – | 57.82 ± 0.016 kPa
530.55 K, Liquid, Twin ebulliometer | – | – | 70.12 ± 0.018 kPa
538.45 K, Liquid, Twin ebulliometer | – | – | 84.53 ± 0.02 kPa
540 K, Liquid, Small sample (50 mg) DSC | – | 385.27 ± 9 | –
546.4 K, Liquid, Twin ebulliometer | – | – | 101.33 ± 0.023 kPa
554.39 K, Liquid, Twin ebulliometer | – | – | 120.79 ± 0.03 kPa
560 K, Liquid, Small sample (50 mg) DSC | – | 397.05 ± 9.2 | –
562.43 K, Liquid, Twin ebulliometer | – | – | 143.25 ± 0.03 kPa
570.5 K, Liquid, Twin ebulliometer | – | – | 169.02 ± 0.04 kPa
578.62 K, Liquid, Twin ebulliometer | – | – | 198.49 ± 0.04 kPa
580 K, Liquid, Small sample (50 mg) DSC | – | 408.64 ± 9.5 | –
586.77 K, Liquid, Twin ebulliometer | – | – | 232.02 ± 0.04 kPa
594.97 K, Liquid, Twin ebulliometer | – | – | 270.02 ± 0.05 kPa
600 K, Liquid, Small sample (50 mg) DSC | – | 420.05 ± 9.8 | –
620 K, Liquid, Small sample (50 mg) DSC | – | 431.28 ± 10 | –
640 K, Liquid, Small sample (50 mg) DSC | – | 442.34 ± 10 | –
660 K, Liquid, Small sample (50 mg) DSC | – | 453.23 ± 11 | –
680 K, Liquid, Small sample (50 mg) DSC | – | 463.97 ± 11 | –
700 K, Liquid, Small sample (50 mg) DSC | – | 474.57 ± 11 | –
788.8 K, Gas, DSC | 176.5 ± 8.9 kg/m3 | – | –
795.1 K, Liquid, DSC | 470.4 ± 24 kg/m3 | – | –
800.7 K, Liquid, DSC | 433.9 ± 22 kg/m3 | – | –
802.9 K, Liquid, DSC | 399.3 ± 20 kg/m3 | – | –
803 K, Gas, DSC | 183.3 ± 12 kg/m3 | – | –
803.6 K, Liquid, DSC | 360.9 ± 18 kg/m3 | – | –
807 K, Gas, DSC | 238.4 ± 14 kg/m3 | – | –
809.2 K, Gas, DSC | 264.7 ± 29 kg/m3 | – | –
809.6 K, Gas, DSC | 268.7 ± 29 kg/m3 and 299.5 ± 38 kg/m3 | – | –

101.33 kPa, Liquid
Conditions | mass density [kg/m3]
298.15 K, From volume and mass of a pressed pellet | 1070 ± 43
342 K, Pycnometric method | 1020 ± 20

Conditions | Triple point temperature [K]
Crystal, Adiabatic calorimetry | 331.97 ± 0.039
